ChEMBL document CHEMBL1255387, “Mechanism of hepatitis C virus RNA polymerase inhibition with dihydroxypyrimidines” (Antimicrob Agents Chemother, 2010)

Experiments:
[1] = target: T1, RNA-directed RNA polymerase (Hepacivirus hominis, UniProt O39930); assay: Inhibition of NS5B-mediated RNA synthesis in Hepatitis C virus assessed as decrease in formation of full-length product after 45 mins
[2] = target: RNA-directed RNA polymerase (Hepacivirus hominis, UniProt O39930, P156L); assay: Inhibition of NS5B P156L mutant-mediated RNA synthesis in Hepatitis C virus as decrease in formation of full-length product after 45 mins
[3] = target: RNA-directed RNA polymerase (Hepacivirus hominis, UniProt O39930, G152E); assay: Inhibition of NS5B G152E mutant-mediated RNA synthesis in Hepatitis C virus as decrease in formation of full-length product after 45 mins
[4] = target: T1, RNA-directed RNA polymerase; assay: Displacement of 0.1 uM UTP from NS5B in Hepatitis C virus
[5] = target: T1, RNA-directed RNA polymerase; assay: Displacement of 1 uM UTP from NS5B in Hepatitis C virus
[6] = target: T1, RNA-directed RNA polymerase; assay: Displacement of 5 uM UTP from NS5B in Hepatitis C virus
[7] = target: T1, RNA-directed RNA polymerase; assay: Displacement of 50 uM PPi from NS5B in Hepatitis C virus
[8] = target: T1, RNA-directed RNA polymerase; assay: Displacement of 100 uM PPi from NS5B in Hepatitis C virus
[9] = target: T1, RNA-directed RNA polymerase; assay: Displacement of 500 uM PPi from NS5B in Hepatitis C virus

T1 sequence (O39930 whole entry): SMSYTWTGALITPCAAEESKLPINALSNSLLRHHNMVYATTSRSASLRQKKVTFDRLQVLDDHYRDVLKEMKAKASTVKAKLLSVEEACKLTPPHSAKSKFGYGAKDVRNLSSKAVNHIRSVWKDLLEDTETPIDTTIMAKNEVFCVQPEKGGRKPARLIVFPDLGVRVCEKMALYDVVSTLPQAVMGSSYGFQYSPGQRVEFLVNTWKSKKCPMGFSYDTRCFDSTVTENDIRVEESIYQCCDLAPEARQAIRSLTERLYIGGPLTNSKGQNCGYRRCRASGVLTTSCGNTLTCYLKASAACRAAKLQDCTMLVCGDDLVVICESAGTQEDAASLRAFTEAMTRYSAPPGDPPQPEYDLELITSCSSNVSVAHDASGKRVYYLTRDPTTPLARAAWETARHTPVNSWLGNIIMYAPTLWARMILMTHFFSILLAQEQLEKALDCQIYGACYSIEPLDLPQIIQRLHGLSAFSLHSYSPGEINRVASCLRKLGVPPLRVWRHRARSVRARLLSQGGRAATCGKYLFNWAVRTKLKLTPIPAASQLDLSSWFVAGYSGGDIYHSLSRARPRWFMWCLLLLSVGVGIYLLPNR
Sequence of RNA-directed RNA polymerase (Hepacivirus hominis, UniProt O39930, P156L) (O39930 entry or part of it P156L): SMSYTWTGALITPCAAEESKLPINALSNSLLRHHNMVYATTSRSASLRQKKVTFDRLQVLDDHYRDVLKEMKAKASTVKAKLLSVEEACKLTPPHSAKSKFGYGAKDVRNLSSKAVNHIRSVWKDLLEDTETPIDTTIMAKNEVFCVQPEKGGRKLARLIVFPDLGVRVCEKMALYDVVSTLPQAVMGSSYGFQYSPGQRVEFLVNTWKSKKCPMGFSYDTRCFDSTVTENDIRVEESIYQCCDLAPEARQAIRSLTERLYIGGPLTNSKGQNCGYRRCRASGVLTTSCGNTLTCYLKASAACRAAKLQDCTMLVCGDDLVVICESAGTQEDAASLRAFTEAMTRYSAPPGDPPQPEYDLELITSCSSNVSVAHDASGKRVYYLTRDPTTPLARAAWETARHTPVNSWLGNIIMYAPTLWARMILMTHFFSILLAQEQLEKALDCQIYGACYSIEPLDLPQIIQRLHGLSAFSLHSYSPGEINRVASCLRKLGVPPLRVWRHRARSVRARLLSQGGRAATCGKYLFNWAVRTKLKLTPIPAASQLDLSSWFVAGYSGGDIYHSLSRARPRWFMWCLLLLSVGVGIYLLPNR
Sequence of RNA-directed RNA polymerase (Hepacivirus hominis, UniProt O39930, G152E) (O39930 entry or part of it G152E): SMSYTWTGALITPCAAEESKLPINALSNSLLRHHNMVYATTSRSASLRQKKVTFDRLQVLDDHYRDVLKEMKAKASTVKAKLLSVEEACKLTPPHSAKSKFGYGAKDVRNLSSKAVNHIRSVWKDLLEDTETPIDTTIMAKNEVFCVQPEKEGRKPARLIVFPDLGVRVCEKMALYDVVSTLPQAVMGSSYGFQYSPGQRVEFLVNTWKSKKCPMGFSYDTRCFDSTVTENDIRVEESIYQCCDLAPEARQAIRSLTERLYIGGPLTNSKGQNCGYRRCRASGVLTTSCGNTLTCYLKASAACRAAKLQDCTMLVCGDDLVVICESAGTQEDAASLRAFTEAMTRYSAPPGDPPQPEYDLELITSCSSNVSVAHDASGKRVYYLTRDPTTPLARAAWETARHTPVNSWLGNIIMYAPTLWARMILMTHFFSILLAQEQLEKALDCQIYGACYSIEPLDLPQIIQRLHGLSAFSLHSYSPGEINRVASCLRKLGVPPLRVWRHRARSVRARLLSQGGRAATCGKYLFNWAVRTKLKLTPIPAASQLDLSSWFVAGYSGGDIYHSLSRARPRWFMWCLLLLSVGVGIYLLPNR

## O=C(Nc1ccsc1-c1nc(O)c(O)c(C(=O)O)n1)OCc1c(Cl)cccc1Cl
[1]
  IC50: 730 nM
[2]
  IC50: 5390 nM
[3]
  IC50: 3780 nM
[4]
  IC50: 258 nM
[5]
  IC50: > 500 nM
[6]
  IC50: > 1000 nM
[7]
  IC50: 174 nM
[8]
  IC50: 302 nM
[9]
  IC50: 882 nM
